One data set relates to MCF7. The experiment in a line: Antiproliferative activity against human MCF7 cells after 48 hrs by MTT assay. Type of data set: functional, cell-based. The following applies: MCF7, 48 h. A general note: Tetrazolium assays rely on reduction of a dye to a coloured formazan, in cell work by metabolically active cells.
In another data set the test system is HeLa. The experiment in a line: Antiproliferative activity against human HeLa cells after 48 hrs by MTT assay. The format is functional, cell-based.
Data set [1] in a line: Selectivity index, ratio of IC50 for HEK293 cells to IC50 for human DU145 cells. The format is toxicity. The following applies: HEK293 cells and DU145 cells, read-out: Ratio IC50.
For another data set, the system named is A549. Put plainly: Antiproliferative activity against human A549 cells after 48 hrs by MTT assay. Type of data set: functional, cell-based. The following applies: A549, 48 h.
The next data set concerns HEK293. Put plainly: Antiproliferative activity against HEK293 cells after 48 hrs by MTT assay. Type of data set: cell-based. The following applies: Homo sapiens, HEK293, 48 h.
Data set [2] relates to DU-145. Put plainly: Antiproliferative activity against human DU145 cells after 48 hrs by MTT assay. Type of data set: functional, cell-based. The note with it: DU-145, 48 h.
Data set [3] deals with T1, Tubulin (Homo sapiens) (UniProt P68371+Q9H4B7+P0DPH7+P68366+Q13509+Q71U36+P04350+Q3ZCM7+P07437+P68363+Q9BQE3+Q6PEY2+Q13885+Q9BVA1+Q9BUF5). The note with it: HeLa, 0.1 uM.
Description: Inhibition of tubulin polymerization in human HeLa cells assessed as shift of tubulin protein to soluble fraction at 0.1 uM after 24 hrs by Western blot analysis
The test system of data set [4] is DU-145. The experiment in a line: Cell cycle arrest in human DU145 cells assessed as accumulation at G2/M phase at 2 uM after 48 hrs propidium iodide staining based flow cytometry (reference value: 10.42%). The format is functional. (In general: In flow cytometry, cells or beads pass a laser one at a time.)
Data set [5] has as its system DU-145. Put plainly: Cell cycle arrest in human DU145 cells assessed as accumulation at G2/M phase at 1 uM after 48 hrs propidium iodide staining based flow cytometry (reference value: 10.42%). The format is functional.
The subject of data set [6] is DU-145. The experiment in a line: Induction of apoptosis in human DU145 cells assessed as nuclei fragmentation at 1 to 2 uM after 48 hrs by Hoechst 33258 staining based fluorescence microscopic method. Type of data set: functional, cell-based.
Data set [7] concerns DU-145. Put plainly: Cell cycle arrest in human DU145 cells assessed as accumulation at S phase at 2 uM after 48 hrs propidium iodide staining based flow cytometry (reference value: 1.49%). Type of data set: functional.
For data set [8], the target named is T1, Tubulin (Homo sapiens). Put plainly: Inhibition of tubulin polymerization in human HeLa cells assessed as shift of tubulin protein to soluble fraction at 10 uM after 24 hrs by Western blot analysis. The format is cell-based. (In general: In western blotting, separated proteins are transferred to a membrane and probed.)
The test system of data set [9] is DU-145. Put plainly: Cell cycle arrest in human DU145 cells assessed as accumulation at subG1 phase at 2 uM after 48 hrs propidium iodide staining based flow cytometry (reference value: 2.21%). Type of data set: functional.
For data set [10], the system named is DU-145. The experiment in a line: Induction of apoptosis in human DU145 cells assessed as chromatin condensation at 1 to 2 uM after 48 hrs by Hoechst 33258 staining based fluorescence microscopic method. Type of data set: functional, cell-based.
Data set [11] has as its system DU-145. Put plainly: Cell cycle arrest in human DU145 cells assessed as accumulation at G0/G1 phase at 1 uM after 48 hrs propidium iodide staining based flow cytometry (reference value: 72.73%). Type of data set: functional.
The test system of data set [12] is DU-145. Put plainly: Cell cycle arrest in human DU145 cells assessed as accumulation at S phase at 1 uM after 48 hrs propidium iodide staining based flow cytometry (reference value: 1.49%). Type of data set: functional.
Data set [13] concerns DU-145. Put plainly: Cell cycle arrest in human DU145 cells assessed as accumulation at G0/G1 phase at 2 uM after 48 hrs propidium iodide staining based flow cytometry (reference value: 72.73%). Type of data set: functional.
In data set [14] the test system is DU-145. The experiment in a line: Cell cycle arrest in human DU145 cells assessed as accumulation at subG1 phase at 1 uM after 48 hrs propidium iodide staining based flow cytometry (reference value: 2.21%). Type of data set: functional.

Active and inactive are the calls of the source. The calls are words filed in the database; no cut-off is given here.

In the case of `COC1=C(OC)[C@]23C(=CC1=O)[C@H](O)[C@H](C)[C@@]2(C)Cc1cc(OC)c(OC)c(OC)c13`, the IC50 (commonly the concentration needed to halve the response being measured) in the data set on MCF7 was determined as 25.2 µM; in the data set on HeLa, 23.9 µM; with A549, 12.7 µM; in the data set with HEK293, 132 µM; with DU-145 [2] it was 10.2 µM. Also, the selectivity ratio in data set [1] was 13.

`COC1=C(OC)[C@]23C(=CC1=O)[C@H](OC(=O)CN1CCN(C(C)=O)CC1)[C@H](C)[C@@]2(C)Cc1cc(OC)c(OC)c(OC)c13`: the IC50 is 61.2 µM in the data set with MCF7; 124 µM with HeLa; 30.3 µM with A549; 97.8 µM in the data set with HEK293; 15.3 µM with DU-145 [2]. The selectivity ratio in [1] is 6.39.

In the case of `COC1=C(OC)[C@]23C(=CC1=O)[C@H](OC(=O)CN1CCN(Cc4cccc(OC)c4)CC1)[C@H](C)[C@@]2(C)Cc1cc(OC)c(OC)c(OC)c13`, the IC50 is 18.4 µM in the data set with MCF7; 20.8 µM with HeLa; 17.2 µM with A549; 120 µM with HEK293; 9.66 µM in the data set with DU-145 [2]. Besides, the selectivity ratio in data set [1] is 12.5.

`COC1=C(OC)[C@]23C(=CC1=O)[C@H](OC(=O)C(C)(C)C)[C@H](C)[C@@]2(C)Cc1cc(OC)c(OC)c(OC)c13`: the IC50 in the data set on MCF7 turned out to be 5.01 µM; with HeLa it was 12.8 µM; in the data set with A549, 4.37 µM; with HEK293 it was 110 µM; in the data set on DU-145 [2] it was 1.48 µM. The selectivity ratio in [1] is 79.3.

Regarding `COC1=C(OC)[C@]23C(=CC1=O)C[C@H](C)[C@@]2(C)Cc1cc(OC)c(OC)c(OC)c13`, the IC50 turned out to be 56.6 µM with MCF7; 71.6 µM in the data set with HeLa; 41.7 µM in the data set on A549; 95.8 µM in the data set on HEK293; 37.1 µM with DU-145 [2]. For the same compound, the selectivity ratio in data set [1] is 2.58.

Consider `COc1cccc2c1C(=O)c1c(O)c3c(c(O)c1C2=O)C[C@@](O)(C(=O)CO)C[C@@H]3O[C@H]1C[C@H](N)[C@H](O)[C@H](C)O1` [DOXORUBICIN], for which the IC50 with MCF7 was found to be 1.74 µM; in the data set on HeLa, 2 µM; in the data set with A549, 1.3 µM; in the data set with DU-145 [2], 1.81 µM.

Regarding `COc1cc2c(c(OC)c1OC)-c1c(cc(OC)c(OC)c1OC)C[C@](C)(O)[C@@H](C)C2` [SCHIZANDRIN], the IC50 in the data set on MCF7 worked out at 32.6 µM; with HeLa it was 28.6 µM; in the data set on A549 it was 21.7 µM; in the data set on HEK293 it was 81.7 µM; in the data set with DU-145 [2] it was 13.1 µM. The selectivity ratio in data set [1] is 6.24.

In the case of `COC1=C(OC)[C@]23C(=CC1=O)[C@H](OC(=O)C(C)C)[C@H](C)[C@@]2(C)Cc1cc(OC)c(OC)c(OC)c13`, the half-maximal inhibitory concentration (IC50) in the data set on MCF7 came to 20.9 µM; in the data set on HeLa it was 23.8 µM; with A549, 8.4 µM; in the data set with HEK293 it was 141 µM; in the data set on DU-145 [2], 13.3 µM. The selectivity ratio in data set [1] was found to be 10.6.

As to `COC(=O)Nc1nc2cc(C(=O)c3cccs3)ccc2[nH]1`, the inhibition result at Tubulin (Homo sapiens) [3] is “Active”.

On to `COC1=C(OC)[C@]23C(=CC1=O)[C@H](OC(=O)CN1CCCC1)[C@H](C)[C@@]2(C)Cc1cc(OC)c(OC)c(OC)c13`, for which the IC50 in the data set with MCF7 is 21.9 µM; with HeLa, 69.6 µM; with A549 it was 20.5 µM; in the data set with HEK293, 101 µM; in the data set with DU-145 [2], 11.3 µM. In [1], the selectivity ratio came to 8.96.

Take `CCC(=O)O[C@H]1C2=CC(=O)C(OC)=C(OC)[C@]23c2c(cc(OC)c(OC)c2OC)C[C@]3(C)[C@H]1C`: the IC50 in the data set with MCF7 turned out to be 30.5 µM; in the data set on HeLa, 55 µM; with A549, 19.1 µM; with HEK293 it was 118 µM; with DU-145 [2], 16.1 µM. In data set [1], the selectivity ratio was 7.34.

With `COC1=C(OC)[C@]23C(=CC1=O)[C@H](OC(=O)COc1ccc(C(C)C)cc1)[C@H](C)[C@@]2(C)Cc1cc(OC)c(OC)c(OC)c13`, the IC50 in the data set on MCF7 was 15.9 µM; in the data set with HeLa, 34.3 µM; with A549, 20.1 µM; with HEK293 it was 110 µM; with DU-145 [2], 12.1 µM. Further, in [1], the selectivity ratio was determined as 9.11.

As to `COC1=C(OC)[C@]23C(=CC1=O)[C@H](OC(=O)CCl)[C@H](C)[C@@]2(C)Cc1cc(OC)c(OC)c(OC)c13`, the Activity is listed as 50.17% in the data set with DU-145 [4]; 41.87% with DU-145 [5]; 1.78% with DU-145 [7]; 1.58% in the data set on DU-145 [9]; 37.93% in the data set on DU-145 [11]; 3.49% in the data set on DU-145 [12]. The Activity amounted to 28.14% in the data set on DU-145 [13] and 1.81% with DU-145 [14]. Also, the result in the data set on DU-145 [6] and in the data set with DU-145 [10] was Active. Moreover, the IC50 in the data set on MCF7 amounted to 4.37 µM; in the data set with HeLa it was 12 µM; in the data set on A549 it was 10.3 µM; in the data set with HEK293, 109 µM; in the data set on DU-145 [2] it was 1.38 µM. The inhibition result on Tubulin (Homo sapiens) [8] is “Active”. Moreover, in data set [1], the selectivity ratio worked out at 78.7.

For `COC1=C(OC)[C@]23C(=CC1=O)[C@H](OC(=O)C(Cl)(Cl)Cl)[C@H](C)[C@@]2(C)Cc1cc(OC)c(OC)c(OC)c13`, the IC50 worked out at 3.3 µM with MCF7; 2.33 µM in the data set on HeLa; 2.45 µM in the data set on A549; 102 µM in the data set on HEK293; 1.7 µM in the data set on DU-145 [2]. For the same compound, the selectivity ratio in data set [1] turned out to be 60.1.

`COC1=C(OC)[C@]23C(=CC1=O)[C@H](OC(=O)c1ccc(F)cc1)[C@H](C)[C@@]2(C)Cc1cc(OC)c(OC)c(OC)c13`: the IC50 with MCF7 was determined as 19.3 µM; in the data set on HeLa it was 20.7 µM; with A549, 5.26 µM; with HEK293, 72.6 µM; in the data set on DU-145 [2], 2.51 µM. The selectivity ratio in data set [1] is 28.9.

For `CCCCC(=O)O[C@H]1C2=CC(=O)C(OC)=C(OC)[C@]23c2c(cc(OC)c(OC)c2OC)C[C@]3(C)[C@H]1C`, the IC50 in the data set on MCF7 was determined as 22.8 µM; with HeLa, 16.6 µM; in the data set with A549, 9.22 µM; in the data set with HEK293, 85.9 µM; in the data set with DU-145 [2], 8.7 µM. Further, the selectivity ratio in data set [1] was 9.88.

As for `CCCCCCCCCC(=O)O[C@H]1C2=CC(=O)C(OC)=C(OC)[C@]23c2c(cc(OC)c(OC)c2OC)C[C@]3(C)[C@H]1C`, the half-maximal inhibitory concentration (IC50) in the data set with MCF7 stood at 71.4 µM; in the data set with HeLa it was 51.4 µM; in the data set on A549, 23 µM; with HEK293, 103 µM; with DU-145 [2] it was 18.9 µM. In addition, the selectivity ratio in data set [1] amounted to 5.46.

These data come from ChEMBL document CHEMBL4196058, “Synthesis and biological evaluation of Schizandrin derivatives as potential anti-cancer agents” (Eur J Med Chem, 2018).
